Results: US20240158348A1, “HERBICIDAL CYCLIC AMIDES N-SUBSTITUTED WITH A HALOALKYLSULFONYLANILIDE GROUP” (FMC Corporation, priority 2021, published 2024)

Experiments:
Type in all cases: in vivo
kochia (Bassia scoparia) [1] = experiment: Test C preemergence, kochia; conditions: 0 is no effect, 100 is complete control
Text: (§1) Seeds of plant species selected from blackgrass (Alopecurus myosuroides), corn (Zea mays), foxtail, giant (giant foxtail, Setaria faberi), goosegrass (Eleusine indica), kochia (Bassia scoparia), oat, wild (wild oat, Avena fatua), pigweed, palmer (palmer amaranth, Amaranthus palmeri), ragweed (common ragweed, Ambrosia artemisiifolia), ryegrass, Italian (Italian ryegrass, Lolium multiflorum), soybean (Glycine max) and wheat (Triticum aestivum) were planted into a blend of loam soil and sand and treated preemergence with a directed soil spray using test chemicals formulated in a non-phytotoxic solvent mixture which included a surfactant.
(§2) At the same time, plants selected from these crop and weed species and also galium (catchweed bedstraw, Galium aparine) and horseweed (Erigeron canadensis) were planted in pots containing the same blend of loam soil and sand and treated with postemergence applications of test chemicals formulated in the same manner. Plants ranged in height from 2 to 10 cm and were in the one- to two-leaf stage for the postemergence treatment. Treated plants and untreated controls were maintained in a greenhouse for 10 or 12 days, after which time all treated plants were compared to untreated controls and visually evaluated for injury. Plant response ratings, summarized in Table A, are based on a 0 to 100 scale where 0 is no effect and 100 is complete control. A dash (-) response means no test result.

[2] = tested on: foxtail, giant (giant foxtail, Setaria faberi); experiment: Test C preemergence, giant foxtail; conditions: 0 is no effect, 100 is complete control
Text: as §1, §2

[3] = tested on: ryegrass, Italian (Italian ryegrass, Lolium multiflorum); experiment: Test C preemergence, Italian ryegrass; conditions: 0 is no effect, 100 is complete control
Text: as §1, §2

[4] = tested on: blackgrass (Alopecurus myosuroides); experiment: Test C preemergence, blackgrass; conditions: 0 is no effect, 100 is complete control
Text: as §1, §2

[5] = tested on: ducksalad (Heteranthera limosa); experiment: Test D flooded paddy test, ducksalad; design: key: 0 = no effect, 100 = complete control; conditions: 250 g ai/ha, Flood; applied to paddy water at 2-leaf stage; visual rating after 13 days; scale 0 (no effect) to 100 (complete control)
Experimental: (§3) Plant species in the flooded paddy test selected from barnyardgrass (Echinochloa crusgalli), ducksalad (Heteranthera limosa), rice (Oryza sativa), and sedge, umbrella (small-flower umbrella sedge, Cyperus difformis) were grown to the 2-leaf stage for testing. At time of treatment, test pots were flooded to 3 cm above the soil surface, treated by application of test compounds directly to the paddy water, and then maintained at that water depth for the duration of the test. Treated plants and controls were maintained in a greenhouse for 13 days, after which time all species were compared to controls and visually evaluated. Plant response ratings, summarized in Table B, are based on a scale of 0 to 100 where 0 is no effect and 100 is complete control. A dash (-) response means no test result.

[6] = tested on: oat, wild (wild oat, Avena fatua); experiment: Test C postemergence, wild oat
Text: as §1, §2

[7] = tested on: wheat (Triticum aestivum); experiment: Test C preemergence, wheat; conditions: 0 is no effect, 100 is complete control
Text: as §1, §2

corn (Zea mays) [8] = experiment: Test C postemergence, corn
Text: as §1, §2

[9] = tested on: pigweed, palmer (palmer amaranth, Amaranthus palmeri); experiment: Test C preemergence, palmer amaranth; conditions: 0 is no effect, 100 is complete control
Text: as §1, §2

[10] = tested on: ryegrass, Italian (Italian ryegrass, Lolium multiflorum); experiment: Test C postemergence, Italian ryegrass
Text: as §1, §2

kochia (Bassia scoparia) [11] = experiment: Test C postemergence, kochia
Text: as §1, §2

[12] = tested on: blackgrass (Alopecurus myosuroides); experiment: Test C postemergence, blackgrass; conditions: 125 g ai/ha Postemergence; 0 is no effect, 100 is complete control
[13] = tested on: goosegrass (Eleusine indica); experiment: Test C postemergence, goosegrass
Text: as §1, §2

[14] = tested on: goosegrass (Eleusine indica); experiment: Test C preemergence, goosegrass; conditions: 0 is no effect, 100 is complete control
Text: as §1, §2

[15] = tested on: sedge, umbrella (small-flower umbrella sedge, Cyperus difformis); experiment: Test D flooded paddy test, umbrella sedge; design: key: 0 = no effect, 100 = complete control; conditions: 250 g ai/ha, Flood; applied to paddy water at 2-leaf stage; visual rating after 13 days; scale 0 (no effect) to 100 (complete control)
Experimental: as §3

soybean (Glycine max) [16] = experiment: Test C postemergence, soybean
Text: as §1, §2

[17] = tested on: ragweed (common ragweed, Ambrosia artemisiifolia); experiment: Test C preemergence, ragweed; conditions: 0 is no effect, 100 is complete control
Text: as §1, §2

[18] = tested on: galium (catchweed bedstraw, Galium aparine); experiment: Test C postemergence, galium
Text: as §1, §2

[19] = tested on: oat, wild (wild oat, Avena fatua); experiment: Test C preemergence, wild oat; conditions: 0 is no effect, 100 is complete control
Text: as §1, §2

[20] = tested on: pigweed, palmer (palmer amaranth, Amaranthus palmeri); experiment: Test C postemergence, palmer amaranth
Text: as §1, §2

[21] = tested on: blackgrass (Alopecurus myosuroides); experiment: Test C postemergence, blackgrass; conditions: 31 g ai/ha Postemergence; visual injury, 0 to 100 scale (0 no effect, 100 complete control)
Text: as §1, §2

[22] = tested on: wheat (Triticum aestivum); experiment: Test C postemergence, wheat
Text: as §1, §2

[23] = tested on: horseweed (Erigeron canadensis); experiment: Test C postemergence, horseweed
Text: as §1, §2

[24] = tested on: foxtail, giant (giant foxtail, Setaria faberi); experiment: Test C postemergence, giant foxtail
Text: as §1, §2

[25] = tested on: barnyardgrass (Echinochloa crusgalli); experiment: Test D flooded paddy test, barnyardgrass; design: key: 0 = no effect, 100 = complete control; conditions: 250 g ai/ha, Flood; applied to paddy water at 2-leaf stage; visual rating after 13 days; scale 0 (no effect) to 100 (complete control)
Experimental: as §3

[26] = tested on: ragweed (common ragweed, Ambrosia artemisiifolia); experiment: Test C postemergence, ragweed
Text: as §1, §2

rice (Oryza sativa) = experiment: Test D flooded paddy test, rice; design: key: 0 = no effect, 100 = complete control; conditions: 250 g ai/ha, Flood; applied to paddy water at 2-leaf stage; visual rating after 13 days; scale 0 (no effect) to 100 (complete control)
Experimental: as §3

soybean (Glycine max) [27] = experiment: Test C preemergence, soybean; conditions: 0 is no effect, 100 is complete control
Text: as §1, §2

corn (Zea mays) [28] = experiment: Test C preemergence, corn; conditions: 0 is no effect, 100 is complete control
Text: as §1, §2

[29] = 31 g ai/ha Postemergence, visual injury, 0 to 100 scale (0 no effect, 100 complete control)
[30] = 125 g ai/ha Postemergence, 0 is no effect, 100 is complete control

Cc1cc(C)c(N(C(=O)OCC(C)C)S(=O)(=O)C(F)(F)F)cc1N1CCC(OC2CC2)C1=O (stereo not shown) [Compound 21]
70: Plant response rating (0 to 100 scale), Ryegrass, Italian ([3]; 31 g ai/ha Preemergence) | Plant response rating (0 to 100 scale), Oat, Wild [6, 30] | Kochia plant response rating (kochia (Bassia scoparia) [11]; [29]) | Plant response rating (0 to 100 scale), Pigweed, Palmer [20, 30]
0: Plant response rating (0 to 100 scale), Soybean (soybean (Glycine max) [27]; 31 g ai/ha Preemergence)
100: Plant response rating (0 to 100 scale), Foxtail, Giant ([2]; 31 g ai/ha Preemergence) | Plant response rating (0 to 100 scale), Foxtail, Giant ([2]; 125 g ai/ha Preemergence) | Plant response rating (0 to 100 scale), Ryegrass, Italian ([3]; 125 g ai/ha Preemergence) | Plant response rating (0 to 100 scale), Pigweed, Palmer ([9]; 31 g ai/ha Preemergence) | Plant response rating (0 to 100 scale), Pigweed, Palmer ([9]; 125 g ai/ha Preemergence) | Plant response rating (0 to 100 scale), Ryegrass, Italian [10, 30] | Plant response rating (0 to 100 scale), Goosegrass ([14]; 125 g ai/ha Preemergence) | Galium plant response rating [18, 29] | Plant response rating (0 to 100 scale), Galium [18, 30]
40: Oat, Wild plant response rating [6, 29] | Plant response rating (0 to 100 scale), Ragweed ([17]; 31 g ai/ha Preemergence) | Blackgrass plant response rating [21] | Foxtail, Giant plant response rating [24, 29]
98: Plant response rating, Ducksalad [5] | Plant response rating, Sedge, Umbrella [15]
90: Plant response rating (0 to 100 scale), Kochia (kochia (Bassia scoparia) [1]; 125 g ai/ha Preemergence) | Plant response rating (0 to 100 scale), Wheat ([7]; 125 g ai/ha Preemergence) | Corn plant response rating (corn (Zea mays) [8]; [29]) | Plant response rating (0 to 100 scale), Corn (corn (Zea mays) [8]; [30]) | Goosegrass plant response rating [13, 29] | Plant response rating (0 to 100 scale), Goosegrass [13, 30] | Plant response rating (0 to 100 scale), Goosegrass ([14]; 31 g ai/ha Preemergence) | Plant response rating (0 to 100 scale), Oat, Wild ([19]; 125 g ai/ha Preemergence) | Plant response rating (0 to 100 scale), Horseweed [23, 30] | Plant response rating (0 to 100 scale), Foxtail, Giant [24, 30] | Plant response rating (0 to 100 scale), Ragweed [26, 30] | Plant response rating (0 to 100 scale), Corn (corn (Zea mays) [28]; 125 g ai/ha Preemergence)
30: Plant response rating (0 to 100 scale), Oat, Wild ([19]; 31 g ai/ha Preemergence) | Pigweed, Palmer plant response rating [20, 29]
10: Plant response rating (0 to 100 scale), Blackgrass ([4]; 31 g ai/ha Preemergence) | Plant response rating (0 to 100 scale), Wheat ([7]; 31 g ai/ha Preemergence) | Wheat plant response rating [22, 29]
95: Plant response rating, Barnyardgrass [25]
85: Plant response rating, Rice (rice (Oryza sativa))
60: Plant response rating (0 to 100 scale), Kochia (kochia (Bassia scoparia) [1]; 31 g ai/ha Preemergence) | Soybean plant response rating (soybean (Glycine max) [16]; [29]) | Plant response rating (0 to 100 scale), Soybean (soybean (Glycine max) [16]; [30]) | Horseweed plant response rating [23, 29] | Plant response rating (0 to 100 scale), Soybean (soybean (Glycine max) [27]; 125 g ai/ha Preemergence)
50: Ryegrass, Italian plant response rating [10, 29] | Plant response rating (0 to 100 scale), Wheat [22, 30]
20: Plant response rating (0 to 100 scale), Corn (corn (Zea mays) [28]; 31 g ai/ha Preemergence)
80: Plant response rating (0 to 100 scale), Blackgrass ([4]; 125 g ai/ha Preemergence) | Plant response rating (0 to 100 scale), Kochia (kochia (Bassia scoparia) [11]; [30]) | Plant response rating (0 to 100 scale), Blackgrass [12] | Plant response rating (0 to 100 scale), Ragweed ([17]; 125 g ai/ha Preemergence) | Ragweed plant response rating [26, 29]
